Measured values taken from PMC9867442, “Indole Derivatives Bearing Imidazole, Benzothiazole-2-Thione or Benzoxazole-2-Thione Moieties—Synthesis, Structure and Evaluation of Their Cytoprotective, Antioxidant, Antibacterial and Fungicidal Activities” (Molecules, 2023).

System: not listed separately
Assay: Ferrous ions (Fe2+) chelating activity (ferrozine)
Conditions: 0.1 mg/mL, 10 min, room temperature
Method: Ferrous ions (Fe^2+) chelating activity was evaluated by inhibition of the formation of Fe^2+-ferrozine complex after incubation of the compounds tested with Fe^2+. The Fe^2+-chelating ability of compounds tested was determined by the absorbance of the ferrous ion-ferrozine complex at 562 nm. In brief, 0.1 mg/mL concentration of the compounds tested in 0.2 mL ethyl alcohol were added to a solution of 0.6 mM FeCl2 (0.05 mL). EDTA (ethylenediaminetetraacetic acid) was used as the standard EDTA chelating agent. The reaction was started by the addition of 5 mM ferrozine (0.05 mL) in ethyl alcohol and shaken vigorously immediately. The samples were stored for 10 min at room temperature (~22 °C). Following incubation, the absorbance (Abs) of the solutions was measured at 562 nm in a spectrophotometer. The percentage of inhibition of ferrozine—Fe^2+ complex formation was calculated using the equation: Fe^2+ chelating effect (%) = [1 − (Abs1/Abs0)] × 100% where Abs0 is the absorbance of the sample without the tested compound and Abs1 is the absorbance in the presence of the compound tested. Each sample was made in triplicate, and three independent experiments were performed.

Row | Compound | Chelating activity [%]
1 | S=c1oc2ccccc2n1Cc1c[nH]c2ccccc12 [Compound 11, 3-((1H-indol-3-yl)methyl)benzo[d]oxazole-2(3H)-thione] | 29

System: Coniophora puteana (Cp)
Assay: Antifungal agar-plate method
Format: cell-based
Conditions: Coniophora puteana, concentration 0.0001%, read-out: Antifungal activity (inhibition of mycelial growth)
Method: (§1) Fungal strains: Coriolus versicolor (Cv), Poria placenta (Pp), Coniophora puteana (Cp) and Gloeophyllum trabeum (Gt) were used as a test organism for the experimental determination of the antifungal activity of 1–11. The fungus were obtained from the collection of the Department of Wood Chemical Technology, Faculty of Forestry and Wood Technology, Poznań, University of Life Sciences, Poland. The fungal growth rates were measured in 90 mm-diameter plastic dishes using the agar-plate method, described by Ważny and Thorton. Five concentrations of gramine and its derivatives in the range of 0.1% to 0.00001% were studied. The compound was applied on the agar (2% agar and 5% malt-extract) prepared on the Petri dish and previously autoclaved. The combination of the compound and fungus was repeated three times. Given sample was centrally inoculated with a 5 mm diameter disc taken from the submargin of 5-day-old malt agar plates. The plates were incubated in darkness at 21 ± 2 °C and 70 ± 5% relative air humidity. The growth duration was determined by the total coverage of the reference plate. The radius of the area covered by the fungus compared with the reference agar plate was employed to calculate the effective doses, ED50, of preservative concentrations retarding the fungal growth rate by 50%.

Row | Compound | inhibition of growth at 0.0001 % [%]
2 | S=c1oc2ccccc2n1Cc1c[nH]c2ccccc12 [Compound 11, 3-((1H-indol-3-yl)methyl)benzo[d]oxazole-2(3H)-thione] | 0

Same assay, conditions: Coniophora puteana, concentration 0.001%, read-out: Antifungal activity (inhibition of mycelial growth)

Row | Compound | inhibition of growth at 0.001 % [%]
3 | S=c1oc2ccccc2n1Cc1c[nH]c2ccccc12 [Compound 11, 3-((1H-indol-3-yl)methyl)benzo[d]oxazole-2(3H)-thione] | 43

Same assay, conditions: Coniophora puteana, concentration 0.01%, read-out: Antifungal activity (inhibition of mycelial growth)

Row | Compound | inhibition of growth at 0.01 % [%]
4 | S=c1oc2ccccc2n1Cc1c[nH]c2ccccc12 [Compound 11, 3-((1H-indol-3-yl)methyl)benzo[d]oxazole-2(3H)-thione] | 44

Same assay, conditions: Coniophora puteana, concentration 0.1%, read-out: Antifungal activity (inhibition of mycelial growth)

Row | Compound | inhibition of growth at 0.1 % [%]
5 | S=c1oc2ccccc2n1Cc1c[nH]c2ccccc12 [Compound 11, 3-((1H-indol-3-yl)methyl)benzo[d]oxazole-2(3H)-thione] | 100

System: Gloeophyllum trabeum (Gt)
Assay: Antifungal agar-plate method
Format: cell-based
Conditions: Gloeophyllum trabeum, concentration 0.0001%, read-out: Antifungal activity (inhibition of mycelial growth)
Method: as §1

Row | Compound | inhibition of growth at 0.0001 % [%]
6 | S=c1oc2ccccc2n1Cc1c[nH]c2ccccc12 [Compound 11, 3-((1H-indol-3-yl)methyl)benzo[d]oxazole-2(3H)-thione] | 17

Same assay, conditions: Gloeophyllum trabeum, concentration 0.001%, read-out: Antifungal activity (inhibition of mycelial growth)

Row | Compound | inhibition of growth at 0.001 % [%]
7 | S=c1oc2ccccc2n1Cc1c[nH]c2ccccc12 [Compound 11, 3-((1H-indol-3-yl)methyl)benzo[d]oxazole-2(3H)-thione] | 39

Same assay, conditions: Gloeophyllum trabeum, concentration 0.01%, read-out: Antifungal activity (inhibition of mycelial growth)

Row | Compound | inhibition of growth at 0.01 % [%]
8 | S=c1oc2ccccc2n1Cc1c[nH]c2ccccc12 [Compound 11, 3-((1H-indol-3-yl)methyl)benzo[d]oxazole-2(3H)-thione] | 47

Same assay, conditions: Gloeophyllum trabeum, concentration 0.1%, read-out: Antifungal activity (inhibition of mycelial growth)

Row | Compound | inhibition of growth at 0.1 % [%]
9 | S=c1oc2ccccc2n1Cc1c[nH]c2ccccc12 [Compound 11, 3-((1H-indol-3-yl)methyl)benzo[d]oxazole-2(3H)-thione] | 100

System: Poria placenta (Pp)
Assay: Antifungal agar-plate method
Format: cell-based
Conditions: concentration 0.0001%, read-out: Antifungal activity (inhibition of mycelial growth)
Method: as §1

Row | Compound | inhibition of growth at 0.0001 % [%]
10 | S=c1oc2ccccc2n1Cc1c[nH]c2ccccc12 [Compound 11, 3-((1H-indol-3-yl)methyl)benzo[d]oxazole-2(3H)-thione] | 0

Same assay, conditions: concentration 0.001%, read-out: Antifungal activity (inhibition of mycelial growth)

Row | Compound | inhibition of growth at 0.001 % [%]
11 | S=c1oc2ccccc2n1Cc1c[nH]c2ccccc12 [Compound 11, 3-((1H-indol-3-yl)methyl)benzo[d]oxazole-2(3H)-thione] | 56

Same assay, conditions: concentration 0.01%, read-out: Antifungal activity (inhibition of mycelial growth)

Row | Compound | inhibition of growth at 0.01 % [%]
12 | S=c1oc2ccccc2n1Cc1c[nH]c2ccccc12 [Compound 11, 3-((1H-indol-3-yl)methyl)benzo[d]oxazole-2(3H)-thione] | 64

Same assay, conditions: concentration 0.1%, read-out: Antifungal activity (inhibition of mycelial growth)

Row | Compound | inhibition of growth at 0.1 % [%]
13 | S=c1oc2ccccc2n1Cc1c[nH]c2ccccc12 [Compound 11, 3-((1H-indol-3-yl)methyl)benzo[d]oxazole-2(3H)-thione] | 100

System: Coriolus versicolor (Cv)
Assay: Antifungal agar-plate method
Format: cell-based
Conditions: Trametes versicolor, concentration 0.0001%, read-out: Antifungal activity (inhibition of mycelial growth)
Method: as §1

Row | Compound | inhibition of growth at 0.0001 % [%]
14 | S=c1oc2ccccc2n1Cc1c[nH]c2ccccc12 [Compound 11, 3-((1H-indol-3-yl)methyl)benzo[d]oxazole-2(3H)-thione] | 0

Same assay, conditions: Trametes versicolor, concentration 0.001%, read-out: Antifungal activity (inhibition of mycelial growth)

Row | Compound | inhibition of growth at 0.001 % [%]
15 | S=c1oc2ccccc2n1Cc1c[nH]c2ccccc12 [Compound 11, 3-((1H-indol-3-yl)methyl)benzo[d]oxazole-2(3H)-thione] | 2

Same assay, conditions: Trametes versicolor, concentration 0.01%, read-out: Antifungal activity (inhibition of mycelial growth)

Row | Compound | inhibition of growth at 0.01 % [%]
16 | S=c1oc2ccccc2n1Cc1c[nH]c2ccccc12 [Compound 11, 3-((1H-indol-3-yl)methyl)benzo[d]oxazole-2(3H)-thione] | 26

Same assay, conditions: Trametes versicolor, concentration 0.1%, read-out: Antifungal activity (inhibition of mycelial growth)

Row | Compound | inhibition of growth at 0.1 % [%]
17 | S=c1oc2ccccc2n1Cc1c[nH]c2ccccc12 [Compound 11, 3-((1H-indol-3-yl)methyl)benzo[d]oxazole-2(3H)-thione] | 100

System: Escherichia coli
Assay: Antibacterial well-diffusion method
Format: cell-based
Conditions: 0.1 mL of compound in DMSO, 48 h, 37 °C
Method: (§2) The antimicrobial properties of compounds were determined against selected bacteria: Micrococcus luteus, Bacillus subtilis, Escherichia coli and Pseudomonas fluorescens which came from the collection of Pure Cultures of the Facility of Microbiology of the Department of Soil Science and Microbiology of the Poznan University of Life Sciences. The well-diffusion method was used to evaluate the antimicrobial properties of compounds. 6 mL each of liquidized broth medium was poured into sterile Petri dishes and allowed to solidify. After which, two sterile glass rings with a diameter of 0.5 cm were placed on the surface of each plate. Then 20 mL each of liquid broth medium containing suspensions of the tested bacterial strains at a density of 10^7 cells/cm3, obtained from 48-h cultures on broth […], was introduced. After the medium solidified, the glass rings were removed with a pencil, obtaining two wells on each plate. 0.1 mL of compound dissolved in pure dimethyl sulphoxide was introduced into one well, and 0.1 mL of pure dimethyl sulphoxide was introduced into the other well, which was as a control. Each compound was tested in four replicates. The plates were incubated for 48 h in a thermostat at 27 °C for M. luteus, B. subtilis and P. fluorescens cultures, and the E. coli culture at 37 °C. At the end of the incubation, the diameters of growth inhibition of the tested strains were measured using calipers.

Row | Compound | Zone of Growth Inhibition [mm]
18 | S=c1oc2ccccc2n1Cc1c[nH]c2ccccc12 [Compound 11, 3-((1H-indol-3-yl)methyl)benzo[d]oxazole-2(3H)-thione] | 2.7

System: Micrococcus luteus
Assay: Antibacterial well-diffusion method
Format: cell-based
Conditions: Micrococus luteus, 0.1 mL of compound in DMSO, 48 h, 27 °C
Method: as §2

Row | Compound | Zone of Growth Inhibition [mm]
19 | S=c1oc2ccccc2n1Cc1c[nH]c2ccccc12 [Compound 11, 3-((1H-indol-3-yl)methyl)benzo[d]oxazole-2(3H)-thione] | 4

System: Bacillus subtilis
Assay: Antibacterial well-diffusion method
Format: cell-based
Conditions: 0.1 mL of compound in DMSO, 48 h, 27 °C
Method: as §2

Row | Compound | Zone of Growth Inhibition [mm]
20 | S=c1oc2ccccc2n1Cc1c[nH]c2ccccc12 [Compound 11, 3-((1H-indol-3-yl)methyl)benzo[d]oxazole-2(3H)-thione] | 0

System: Pseudomonas fluorescens
Assay: Antibacterial well-diffusion method
Format: cell-based
Conditions: 0.1 mL of compound in DMSO, 48 h, 27 °C
Method: as §2

Row | Compound | Zone of Growth Inhibition [mm]
21 | S=c1oc2ccccc2n1Cc1c[nH]c2ccccc12 [Compound 11, 3-((1H-indol-3-yl)methyl)benzo[d]oxazole-2(3H)-thione] | 0

System: not given
Assay: not given
Conditions: not given

Row | melting point [°C] | Compound
22 | 157 to 159 | S=c1oc2ccccc2n1Cc1c[nH]c2ccccc12 [Compound 11, 3-((1H-indol-3-yl)methyl)benzo[d]oxazole-2(3H)-thione]
